In patent US20210199658A1, “DETECTION OF LIPASE ACTIVITY IN HONEY BEES” (The United States of America, as Represented by the …, priority 2019, published 2021):

Legend:
honey bees [1] = assay: Time course of lipase activity (RFU) in honey bees challenged with imidacloprid; format: in vivo, Apis mellifera
Protocol: Healthy honey bees were challenged in a cup-cage environment with either 5 ppb or 50 ppb of the neonicotinoid imidacloprid. The lipase activity levels were measured during a 50 minute time course, as taught herein.
To determine if it is possible to detect a difference between healthy bees and DWV-infected bees using the EnzChek lipase substrate and the buffers taught herein, a time course assay was performed using a set amount of EnzChek lipase substrate and a fixed amount of extracted pupae. […] In this figure, the relative fluorescence intensity (RFU) measured was plotted against time. Using linear regression, a significant difference in slopes was observable between individuals from DWV-infected hives, and individuals from healthy hives. The slope obtained for DWV-infected individuals was about 13.8 higher than the slope obtained for healthy individuals.
Healthy seven and fourteen-day-old emerging adult honey bees were obtained from field colonies and were challenged with either 5 ppb or 50 ppb of the neonicotinoid imidacloprid. Same-aged bees were collected from unchallenged colonies acted as controls. The lipase activity levels were measured during a 30-minute time course, as in Example 3. […] Statistical significance was determined using pair-wise Kaplan Meier linear regression (P<0.01).

honey bees [2] = assay: Total lipid content of imidacloprid-challenged bees, vanillin assay; format: in vivo, Apis mellifera
Protocol: The total lipid content on bees challenged with either 5 ppb or 50 ppb imidacloprid was measured using the vanillin assay, performed as in Example 4. The measured lipid levels (in mg/mL) were plotted, and the results are shown on FIG. 10. The total lipid content for bees treated with 5 ppb imidacloprid (P<0.01) or 50 ppb imidacloprid (P<0.05) was approximately 3-fold lower than the total lipid content measured in control bees.
To determine if the lipase activity measured in healthy and DWV-infected hives correlated with the measured lipid levels, the vanillin assay (Foray, V., et al., 2012, “A handbook for uncovering the complete energetic budget in insects: the van Handel's method (1985) revisited,” Physiol. Entomol. 37: 295-302) was used to measure the lipid levels in the bees. Briefly, vanillin reagent was prepared by mixing vanillin (V1104; Sigma-Aldrich, St. Louis, Mo., USA) with 68% ortho-phosphoric acid, reaching a final concentration of 1.2 g/L. For the assay, 100 μL of homogenized pupae in PBS was transferred into a borosilicate microplate well and heated at 90° C. until complete solvent evaporation. Ten microliters of 98% sulphuric acid was then added to each well, and the microplate was incubated at 90° C. for 2 minutes in a water bath. […] The plate was homogenized, incubated at room temperature for 15 minutes and its absorbance was measured spectrophotometrically at 525 nm.

Compound: O=[N+]([O-])NC1=NCCN1Cc1ccc(Cl)nc1 [imidacloprid, 1-(6-chloro-3-pyridylmethyl)-N-nitroimidazolidin-2-ylideneamine]
- lipase activity levels (slope of RFU against time) compared with control bees (honey bees [1]; bees challenged with 5 ppb imidacloprid): similar
- lipase activity levels (RFU against time) compared with control bees (honey bees [1]; bees challenged with 50 ppb imidacloprid, linear regression P<0.01): significantly higher
- total lipid content, fold lower than control bees (honey bees [2]; bees treated with 5 ppb imidacloprid, P<0.01): approximately 3 fold
- total lipid content, fold lower than control bees (honey bees [2]; bees treated with 50 ppb imidacloprid, P<0.05): approximately 3 fold
